Test results as given in PMC8561395 (Biochemistry, 2021).
Where two headings read alike, the source gives them in different places.

How the values were obtained:
[1] = target: T1, SsoPTP (Saccharolobus solfataricus, UniProt Q97VZ7); assay: Inhibition of SsoPTP activity by buffers, pNPP as substrate
T1 sequence (Q97VZ7 1-161): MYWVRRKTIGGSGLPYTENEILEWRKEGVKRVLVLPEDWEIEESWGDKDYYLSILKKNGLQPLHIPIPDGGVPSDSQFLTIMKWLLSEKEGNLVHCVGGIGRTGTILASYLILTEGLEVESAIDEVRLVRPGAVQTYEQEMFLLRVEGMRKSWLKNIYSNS

[2] = test system: bovine low molecular weight PTP; settings: more strongly than observed for SsoPTP; cited from earlier work
[3] = target: T1, SsoPTP; assay: Steady-state Michaelis-Menten kinetics with pNPP; assay type: biochemical, Sulfolobus solfataricus; settings: read-out: KM for pNPP

Structure (SMILES) | Inhibition of SsoPTP (in words) ([1]; pNPP substrate) | Ki [1] | further results
CC(=O)O [Acetic acid] | no inhibitory effect |  | 
O=S(=O)(O)CCCNC1CCCCC1 [CAPS] |  |  | Ki ([1]; pNPP substrate, 100 mM sodium acetate buffer pH 5.0, inhibitor 5–400 mM): 54 ± 11 mM
O=C(O)CC(O)(CC(=O)O)C(=O)O [Citric acid] |  | 8 ± 1 mM | 
O=S(=O)(O)CCN1CCN(CCO)CC1 [HEPES] |  | 44 ± 8 mM | Strength of inhibition of bovine low molecular weight PTP relative to SsoPTP [2]: about 10 fold
O=S(=O)(O)CCCN1CCOCC1 [MOPS] | did not show measurable inhibition |  | 
O=[N+]([O-])c1ccc(OP(=O)(O)O)cc1 [pNPP, p-nitrophenyl phosphate] |  |  | Km [3]: 3.4 mM
